Data taken from ChEMBL document CHEMBL4417631, “Oral peptide inhibitors of interleukin-23 receptor and their use to treat inflammatory bowel diseases” (2017).
Where a SMILES comes first, the peptide text is derived from it. [ ]: non-standard residue; d: D form. Phe(3,4-(OMe)2) = COc1ccc(C[C@H](N)C(=O)O)cc1OC; Phe(4-CONH2) = NC(=O)c1ccc(C[C@H](N)C(=O)O)cc1; 2Nal = N[C@@H](Cc1ccc2ccccc2c1)C(=O)O; AEF = NCCOc1ccc(C[C@H](N)C(=O)O)cc1; Pen = CC(C)(S)[C@H](N)C(=O)O; αMeV = CC(C)[C@](C)(N)C(=O)O; Aib = CC(C)(N)C(=O)O

Biological target: T1, Interleukin-23 receptor (Homo sapiens, UniProt Q5VWK5)
T1 sequence (Q5VWK5 whole entry): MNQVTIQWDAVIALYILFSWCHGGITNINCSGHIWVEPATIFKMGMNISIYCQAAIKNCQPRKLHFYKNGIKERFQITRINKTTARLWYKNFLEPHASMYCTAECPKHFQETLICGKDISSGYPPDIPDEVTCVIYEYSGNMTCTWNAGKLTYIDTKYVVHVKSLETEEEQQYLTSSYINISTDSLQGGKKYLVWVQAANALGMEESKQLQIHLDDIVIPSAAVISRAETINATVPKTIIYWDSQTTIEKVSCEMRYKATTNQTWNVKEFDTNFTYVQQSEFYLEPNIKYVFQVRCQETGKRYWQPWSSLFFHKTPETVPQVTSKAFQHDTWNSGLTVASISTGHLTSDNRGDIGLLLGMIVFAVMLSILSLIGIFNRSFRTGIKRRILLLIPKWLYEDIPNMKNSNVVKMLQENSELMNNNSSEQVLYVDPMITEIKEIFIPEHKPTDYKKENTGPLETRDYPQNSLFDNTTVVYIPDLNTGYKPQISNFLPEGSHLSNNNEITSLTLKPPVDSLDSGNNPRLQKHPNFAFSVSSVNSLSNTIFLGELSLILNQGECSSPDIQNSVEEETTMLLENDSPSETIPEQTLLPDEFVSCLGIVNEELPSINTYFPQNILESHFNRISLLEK
Assay: Inhibition of interleukin-23 binding to human interleukin-23 receptor incubated for 2 hrs by competitive binding ELISA

First: CC(C)[C@H](NC(=O)[C@H](Cc1c[nH]c2ccccc12)NC(=O)[C@H](CC(=O)O)NC(=O)[C@H](C)NC(=O)[C@H](CS)NC(=O)COCCN)C(=O)N[C@@H](CS)C(=O)N[C@@H](Cc1ccc(O)cc1)C(=O)N[C@@H](Cc1c[nH]c2ccccc12)C(=O)N[C@@H](Cc1cnc[nH]1)C(=O)N[C@H](C(=O)N[C@@H](Cc1ccccc1)C(=O)NCC(=O)O)[C@@H](C)O
Second: CC(=O)N[C@@H](CS)C(=O)N[C@@H](C)C(=O)N[C@@H](CC(=O)O)C(=O)N[C@@H](Cc1c[nH]c2ccccc12)C(=O)N[C@H](C(=O)N[C@@H](CS)C(=O)N[C@@H](Cc1ccc(O)cc1)C(=O)N[C@@H](Cc1c[nH]c2ccccc12)C(=O)N[C@@H](Cc1cnc[nH]1)C(=O)N[C@H](C(=O)N[C@@H](Cc1ccccc1)C(=O)NCC(=O)N[C@@H](C)C(=O)N[C@H](CCCCN)C(=O)O)[C@@H](C)O)C(C)C
The IC50 of the first is higher: > 1000 nM for the first, < 500 nM for the second. The second is the more potent here.

Going from `CC(=O)N[C@@H](CS)C(=O)N[C@@H](C)C(=O)N[C@@H](CC(=O)O)C(=O)N[C@@H](Cc1c[nH]c2ccccc12)C(=O)N[C@H](C(=O)N[C@@H](CS)C(=O)N[C@@H](Cc1ccc(O)cc1)C(=O)N[C@@H](Cc1cc(F)cc(F)c1)C(=O)N[C@@H](CCCN)C(=O)N[C@@H](CN)C(=O)N[C@@H](Cc1ccccc1)C(=O)NCC(=O)NCCOCC(=O)N[C@H](CCCCN)C(N)=O)C(C)C` to `CC(=O)N[C@@H](CS)C(=O)N[C@@H](CCC(N)=O)C(=O)N[C@H](C(=O)N[C@@H](Cc1c[nH]c2ccccc12)C(=O)N[C@@H](CCC(N)=O)C(=O)N[C@@H](CS)C(=O)N[C@@H](Cc1ccc(O)cc1)C(=O)N[C@H](CC(=O)N[C@@H](CCCNC(=N)N)C(=O)N[C@H](C(=O)N[C@@H](CC(N)=O)C(=O)NCC(=O)NCCOCC(=O)N[C@H](CCCCN)C(N)=O)C(C)C)Cc1cccc2ccccc12)[C@@H](C)O`, the IC50 rises from 6000 nM to > 30000 nM.

Compared with `CC(=O)N[C@@H](CS)C(=O)N[C@@H](C)C(=O)N[C@@H](CC(=O)O)C(=O)N[C@@H](Cc1c[nH]c2ccccc12)C(=O)N[C@H](C(=O)N[C@H](C(=O)N[C@@H](Cc1ccc(O)cc1)C(=O)N[C@@H](Cc1c[nH]c2ccccc12)C(=O)N[C@@H](Cc1cnc[nH]1)C(=O)N[C@H](C(=O)N[C@@H](Cc1ccccc1)C(=O)NCC(N)=O)[C@@H](C)O)C(C)(C)S)C(C)C`, `N=C(N)NCCC[C@H](NC(=O)[C@H](Cc1c[nH]c2ccccc12)NC(=O)[C@H](Cc1ccc(O)cc1)NC(=O)[C@@H]1CCSCc2ccc(cc2)C(=O)N[C@@H](CCC(N)=O)C(=O)N[C@@H](CC(=O)O)C(=O)N[C@@H](Cc2c[nH]c3ccccc23)C(=O)N[C@@H](CCC(N)=O)C(=O)N1)C(=O)N[C@@H](CCC(=O)O)C(=O)N[C@@H](CC(N)=O)C(=O)NCC(=O)NCCOCC(=O)N[C@H](CCCCN)C(N)=O` is higher in IC50: 1000 to 10000 nM for the first, > 30000 nM for the second. The first is the more potent here.

Biological target: T1, Interleukin-23 receptor
Assay: Inhibition of interleukin-23 receptor in human DB cells assessed as reduction in IL-23-stimulated STAT3 phosphorylation incubated for 30 mins by HTRF assay
Assay type: cell-based

`COc1ccc(C[C@H](NC(=O)[C@@H](NC(=O)[C@H](CCC(N)=O)NC(=O)[C@H](Cc2c[nH]c3ccccc23)NC(=O)[C@@H](NC(=O)[C@H](CCC(N)=O)NC(=O)[C@@H](NC(C)=O)C(C)(C)S)[C@@H](C)O)C(C)(C)S)C(=O)N[C@@H](Cc2ccc3ccccc3c2)C(=O)N[C@@H](CCC(C)C)C(=O)N[C@@H](CCCCNC(C)=O)C(=O)N[C@@H](CC(N)=O)C(=O)NCCC(N)=O)cc1` and `CC(=O)NCCCC[C@H](NC(=O)[C@H](CCC(C)C)NC(=O)[C@H](Cc1ccc2ccccc2c1)NC(=O)[C@H](Cc1ccc(OCCN)cc1)NC(=O)[C@@H](NC(=O)[C@H](CCC(N)=O)NC(=O)[C@H](Cc1c[nH]c2ccccc12)NC(=O)[C@@H](NC(=O)[C@H](CCC(N)=O)NC(=O)[C@@H](NC(C)=O)C(C)(C)S)[C@@H](C)O)C(C)(C)S)C(=O)N[C@@H](CC(N)=O)C(=O)NCCC(N)=O` cannot be ordered by IC50: < 10 nM for the first, < 10 nM for the second.

`CC(=O)NCCCC[C@H](NC(=O)C(C)(C)NC(=O)[C@H](Cc1ccc2ccccc2c1)NC(=O)[C@H](Cc1ccc(OCCN)cc1)NC(=O)[C@@H](NC(=O)[C@H](CCC(N)=O)NC(=O)[C@H](Cc1c[nH]c2ccccc12)NC(=O)[C@@H](NC(=O)[C@H](CCC(N)=O)NC(=O)[C@@H](NC(=O)[C@@H](CC(=O)O)NC(C)=O)C(C)(C)S)[C@@H](C)O)C(C)(C)S)C(=O)N[C@@H](CC(N)=O)C(=O)N[C@@H](CC(N)=O)C(N)=O` and `CC(=O)NCCCC[C@H](NC(=O)C(C)(C)NC(=O)[C@H](Cc1ccc2ccccc2c1)NC(=O)[C@H](Cc1ccc(OCCN)cc1)NC(=O)[C@@H](NC(=O)[C@H](CCC(N)=O)NC(=O)[C@H](Cc1c[nH]c2ccccc12)NC(=O)[C@@H](NC(=O)[C@H](CCC(N)=O)NC(=O)[C@@H](NC(=O)[C@H](CC(C)C)NC(C)=O)C(C)(C)S)[C@@H](C)O)C(C)(C)S)C(=O)N[C@@H](CC(N)=O)C(=O)N[C@@H](CC(N)=O)C(N)=O` (Ac-L[Pen]QTWQ[Pen][AEF][2Nal][Aib]K(Ac)NN-NH2) cannot be ordered by IC50: < 10 nM for the first, < 10 nM for the second.

Compared with `CC(=O)NCCCC[C@H](NC(=O)[C@H](CCCCN)NC(=O)[C@H](Cc1ccc2ccccc2c1)NC(=O)[C@H](Cc1ccc(OCCNC(C)=O)cc1)NC(=O)[C@@H](NC(=O)[C@H](CCC(N)=O)NC(=O)[C@H](Cc1c[nH]c2ccccc12)NC(=O)[C@@H](NC(=O)[C@H](CCC(N)=O)NC(=O)[C@@H](NC(C)=O)C(C)(C)S)[C@@H](C)O)C(C)(C)S)C(=O)N[C@@H](CC(N)=O)C(=O)N[C@@H](CC(N)=O)C(N)=O`, `CC(=O)NCCCC[C@H](NC(=O)C(C)(C)NC(=O)[C@H](Cc1ccc2ccccc2c1)NC(=O)[C@H](Cc1ccc(OCCN)cc1)NC(=O)[C@@H](NC(=O)[C@H](CCC(N)=O)NC(=O)[C@H](Cc1c[nH]c2ccccc12)NC(=O)[C@@H](NC(=O)[C@H](CCC(N)=O)NC(=O)[C@@H](NC(=O)[C@H](CCCNC(=N)N)NC(C)=O)C(C)(C)S)[C@@H](C)O)C(C)(C)S)C(=O)N[C@@H](CC(N)=O)C(=O)N[C@@H](CC(N)=O)C(N)=O` is lower in IC50: 25 to 100 nM for the first, < 10 nM for the second.

First: COc1ccc(C[C@H](NC(=O)[C@H](Cc2ccc(C(N)=O)cc2)NC(=O)[C@@H](NC(=O)[C@H](CCC(N)=O)NC(=O)[C@H](Cc2c[nH]c3ccccc23)NC(=O)[C@@H](NC(=O)[C@H](CCC(N)=O)NC(=O)[C@@H](NC(C)=O)C(C)(C)S)[C@@H](C)O)C(C)(C)S)C(=O)N[C@](C)(C(=O)N[C@@H](CCCCNC(C)=O)C(=O)N[C@@H](CC(N)=O)C(=O)N[C@@H](CC(N)=O)C(N)=O)C(C)C)cc1OC (Ac-[Pen]QTWQ[Pen][Phe(4-CONH2)][Phe(3,4-(OMe)2)][αMeV]K(Ac)NN-NH2)
Second: CC(=O)NCCCC[C@H](NC(=O)[C@@](C)(NC(=O)[C@H](Cc1ccc2ccccc2c1)NC(=O)[C@H](Cc1ccc(C(N)=O)cc1)NC(=O)[C@@H](NC(=O)[C@H](CCC(N)=O)NC(=O)[C@H](Cc1c[nH]c2ccccc12)NC(=O)[C@@H](NC(=O)[C@H](CCC(N)=O)NC(=O)[C@@H](NC(=O)[C@@H](CCCCN)NC(C)=O)C(C)(C)S)[C@@H](C)O)C(C)(C)S)C(C)C)C(=O)N[C@@H](CC(N)=O)C(=O)N[C@@H](CC(N)=O)C(N)=O
The IC50 of the first is lower: 10 to 25 nM for the first, 1000 to 10000 nM for the second.

Compared with `CC(=O)N[C@@H](CS)C(=O)N[C@@H](CN)C(=O)N[C@H](C(=O)N[C@@H](Cc1c[nH]c2ccccc12)C(=O)N[C@@H](CCC(N)=O)C(=O)N[C@@H](CS)C(=O)N[C@@H](Cc1ccc(O)cc1)C(=O)N[C@@H](Cc1c[nH]c2ccccc12)C(=O)N[C@@H](CCCNC(=N)N)C(=O)N[C@H](C(=O)N[C@@H](Cc1ccccc1)C(=O)NCC(=O)NCCOCC(=O)N[C@H](CCCCN)C(N)=O)C(C)C)[C@@H](C)O`, `CC(=O)NCCCC[C@H](NC(=O)C(C)(C)NC(=O)[C@H](Cc1ccc2ccccc2c1)NC(=O)[C@H](Cc1ccc(OCCN)cc1)NC(=O)[C@@H](NC(=O)[C@H](CCC(N)=O)NC(=O)[C@H](Cc1c[nH]c2ccccc12)NC(=O)[C@@H](NC(=O)[C@H](CCC(N)=O)NC(=O)[C@@H](NC(=O)[C@H](Cc1ccccc1)NC(C)=O)C(C)(C)S)[C@@H](C)O)C(C)(C)S)C(=O)N[C@@H](CC(N)=O)C(=O)N[C@@H](CC(N)=O)C(N)=O` is lower in IC50: 100 nM for the first, < 10 nM for the second.

`COc1ccc(C[C@H](NC(=O)[C@@H](NC(=O)[C@H](CCC(N)=O)NC(=O)[C@H](Cc2c[nH]c3ccccc23)NC(=O)[C@@H](NC(=O)[C@H](CCC(N)=O)NC(=O)[C@@H](NC(C)=O)C(C)(C)S)[C@@H](C)O)C(C)(C)S)C(=O)N[C@@H](Cc2ccc3ccccc3c2)C(=O)NC(C)(C)C(=O)N[C@@H](CCCCNC(C)=O)C(=O)N[C@@H](CC(N)=O)C(=O)N[C@@H](C)C(N)=O)cc1` and `CC(=O)NCCOc1ccc(C[C@H](NC(=O)[C@@H](NC(=O)[C@H](CCC(N)=O)NC(=O)[C@H](Cc2c[nH]c3ccccc23)NC(=O)[C@@H](NC(=O)[C@H](CCC(N)=O)NC(=O)[C@@H](NC(C)=O)C(C)(C)S)[C@@H](C)O)C(C)(C)S)C(=O)N[C@@H](Cc2ccc3ccccc3c2)C(=O)N[C@](C)(C(=O)N[C@@H](CCCCN)C(=O)N[C@@H](CC(N)=O)C(=O)N[C@@H](CC(N)=O)C(N)=O)C(C)C)cc1` cannot be ordered by IC50: < 10 nM for the first, < 10 nM for the second.

In the case of `COc1ccc(C[C@H](NC(=O)[C@@H](NC(=O)[C@H](CCC(N)=O)NC(=O)[C@H](Cc2c[nH]c3ccccc23)NC(=O)[C@@H](NC(=O)[C@H](CCC(N)=O)NC(=O)[C@@H](NC(C)=O)C(C)(C)S)[C@@H](C)O)C(C)(C)S)C(=O)N[C@@H](Cc2ccc3ccccc3c2)C(=O)N[C@](C)(C(=O)N[C@@H](CCCCNC(C)=O)C(=O)N[C@@H](CC(N)=O)C(=O)N[C@@H](CC(N)=O)C(=O)N[C@@H](N)CCCCN)C(C)C)cc1`, the IC50 is reported as < 10 nM.
